For assay [1], the system named is H929 multiple myeloma tumour line. Kind of assay: In vitro cytotoxicity, Microculture Tetrazolium Assay. Type of assay: cell-based. The note with it: Homo sapiens, NCI-H929, 48 h, H929 cells, 48 hours exposure, MTT; read-out: IC50 (μM) MTT H929. As to the method: The cytotoxicity studies were carried out on the H929 multiple myeloma tumour line.
The cells are distributed onto microplates and exposed to the test compounds for 48 hours.

The target of another assay is Mcl-1 protein (UniProtKB primary accession number: Q07820) (Homo sapiens, UniProt Q07820). Kind of assay: Inhibition of Mcl-1 by fluorescence polarisation, Method 1. Type of assay: binding. Particulars: fluorescence polarisation test; Method 2 values are underlined in the patent (underlining not visible here); read-out: IC50 (M) Mcl-1 FP. An outline of the steps: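 FP competition, 11-point compound titration in 5% final DMSO; protein and labelled probe at 5 nM and 1 nM final in HEPES/NaCl/Tween 20 buffer, pH 7.4.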

In assay [2] the test system is AMO-1 multiple myeloma cells. Kind of assay: Quantification of the cleaved form of PARP in vivo (MSD ELISA, tumour lysates). Also on record: species or system mice (SCID strain). The note with it: activation factor: cleaved PARP in treated mice / control mice, AMO-1 xenograft in SCID mice, intraveinous or oral routes. As to the method:
The ability of the compounds of the invention to induce apoptosis, by measuring cleaved PARP levels, is evaluated in a xenograft model of AMO-1 multiple myeloma cells. 1.10^7 AMO-1 cells are grafted sub-cutaneously into immunosuppressed mice (SCID strain). 12 to 14 days after the graft, the animals are treated by intraveinous or oral routes with the various compounds. After treatment, the tumour masses are recovered and lysed, and the cleaved form of PARP is quantified in the tumour lysates.
The quantification is carried out using the “Meso Scale Discovery (MSD) ELISA platform” test, which specifically assays the cleaved form of PARP. It is expressed in the form of an activation factor corresponding to the ratio between the quantity of cleaved PARP in the treated mice divided by the quantity of cleaved PARP in the control mice.
A general note: An ELISA detects its analyte on a solid surface through an enzyme-linked reagent.

Sequence of Mcl-1 protein (Q07820 whole entry): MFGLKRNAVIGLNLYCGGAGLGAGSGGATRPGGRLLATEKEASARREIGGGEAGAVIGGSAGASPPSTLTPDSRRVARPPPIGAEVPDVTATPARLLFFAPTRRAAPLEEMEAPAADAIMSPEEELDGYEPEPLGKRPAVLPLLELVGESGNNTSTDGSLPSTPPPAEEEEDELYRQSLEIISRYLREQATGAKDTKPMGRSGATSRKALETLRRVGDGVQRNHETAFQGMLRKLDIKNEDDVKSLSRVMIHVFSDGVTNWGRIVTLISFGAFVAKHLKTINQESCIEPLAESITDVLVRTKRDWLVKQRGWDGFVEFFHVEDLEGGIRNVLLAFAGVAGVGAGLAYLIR

In general, IC50 refers to the concentration needed to halve the response being measured. In the case of `Cc1c(-c2c(-c3ccc(F)cc3)sc3ncnc(OC(Cc4ccccc4OCc4ccnc(OCC(F)(F)F)n4)C(=O)O)c23)ccc(OCCN2CCN(C)CC2)c1Cl` [Example 58, (2R)-2-{[(5Sa)-5-{3-chloro-2-methyl-4-[2-(4-methylpiperazin-1-yl)ethoxy]phenyl}-6-(4-fluorophenyl)thieno[2,3-d]pyrimidin-4-yl]oxy}-3-(2-{[2-(2,2,2-trifluoroethoxy)pyrimidin-4-yl]methoxy}phenyl)propanoic acid], the figures for the IC50 (in assay [1]; on Mcl-1 protein) were 0.01 µM and 4e-09 M, respectively. Also, the PARP fold in assay [2] came out at 181.9 fold.

With `Cc1c(-c2c(-c3ccc(F)cc3)sc3ncnc(OC(Cc4ccccc4OCc4ccnc(OCCC(F)(F)F)n4)C(=O)O)c23)ccc(OCCN2CCN(C)CC2)c1Cl` [Example 62, (2R)-2-{[(5Sa)-5-{3-chloro-2-methyl-4-[2-(4-methylpiperazin-1-yl)ethoxy]phenyl}-6-(4-fluorophenyl)thieno[2,3-d]pyrimidin-4-yl]oxy}-3-(2-{[2-(3,3,3-trifluoropropoxy)pyrimidin-4-yl]methoxy}phenyl)propanoic acid], the IC50 in assay [1] was 0.008 µM; on Mcl-1 protein it was 3.9e-09 M. In assay [2], this compound gave a PARP fold of 391.6 fold.

For `COCCOc1nccc(COc2ccccc2CC(Oc2ncnc3sc(-c4ccc(F)cc4)c(-c4ccc(OCCN5CCN(C)CC5)c(Cl)c4C)c23)C(=O)O)n1` [Example 63, (2R)-2-{[(5Sa)-5-{3-chloro-2-methyl-4-[2-(4-methylpiperazin-1-yl)ethoxy]phenyl}-6-(4-fluorophenyl)thieno[2,3-d]pyrimidin-4-yl]oxy}-3-(2-{[2-(2-methoxyethoxy)pyrimidin-4-yl]methoxy}phenyl)propanoic acid], the IC50 in assay [1] is 0.009 µM; at Mcl-1 protein it was 4.5e-09 M. In addition, the PARP fold in assay [2] is 177.8 fold.

Turning to `CCCCn1nncc1COc1ccccc1CC(Oc1ncnc2sc(-c3ccc(F)cc3)c(-c3ccc(OCCN4CCN(C)CC4)c(Cl)c3C)c12)C(=O)O` [Example 95, (2R)-3-{2-[(1-butyl-1H-1,2,3-triazol-5-yl)methoxy]phenyl}-2-{[(5Sa)-5-{3-chloro-2-methyl-4-[2-(4-methylpiperazin-1-yl)ethoxy]phenyl}-6-(4-fluorophenyl)thieno[2,3-d]pyrimidin-4-yl]oxy}propanoic acid], the values for the IC50 (in assay [1]; on Mcl-1 protein) were 0.022 µM and 4.2e-09 M, respectively. Besides, the PARP fold in assay [2] was 156.8 fold.

In the case of `Cc1c(-c2c(-c3ccc(F)cc3)sc3ncnc(OC(Cc4ccccc4OCc4ccnc(-c5ccccc5F)n4)C(=O)O)c23)ccc(OCCN2CCN(C)CC2)c1Cl` [Example 114, (2R)-2-{[(5Sa)-5-{3-chloro-2-methyl-4-[2-(4-methylpiperazin-1-yl)ethoxy]phenyl}-6-(4-fluorophenyl)thieno[2,3-d]pyrimidin-4-yl]oxy}-3-(2-{[2-(2-fluorophenyl)pyrimidin-4-yl]methoxy}phenyl)propanoic acid], the figures for the IC50 (in assay [1]; on Mcl-1 protein) were 0.005 µM and 2.1e-09 M, respectively. In assay [2], this compound had a PARP fold of 158.2 fold.

Take `Cc1cc(-c2nccc(COc3ccccc3CC(Oc3ncnc4sc(-c5ccc(F)cc5)c(-c5ccc(OCCN6CCN(C)CC6)c(Cl)c5C)c34)C(=O)O)n2)ccn1` [Example 118, (2R)-2-{[(5Sa)-5-{3-chloro-2-methyl-4-[2-(4-methylpiperazin-1-yl)ethoxy]phenyl}-6-(4-fluorophenyl)thieno[2,3-d]pyrimidin-4-yl]oxy}-3-(2-{[2-(2-methylpyridin-4-yl)pyrimidin-4-yl]methoxy}phenyl)propanoic acid]: the IC50 in assay [1] is 0.006 µM; at Mcl-1 protein it was 5.5e-09 M. In assay [2], the PARP fold was 159.8 fold.

As for `Cc1ccncc1-c1nccc(COc2ccccc2CC(Oc2ncnc3sc(-c4ccc(F)cc4)c(-c4ccc(OCCN(C)C)c(Cl)c4C)c23)C(=O)O)n1` [Example 138, (2R)-2-{[(5Sa)-5-{3-chloro-4-[2-(dimethylamino)ethoxy]-2-methylphenyl}-6-(4-fluorophenyl)thieno[2,3-d]pyrimidin-4-yl]oxy}-3-(2-{[2-(4-methylpyridin-3-yl)pyrimidin-4-yl]methoxy}phenyl)propanoic acid], the IC50 in assay [1] is 0.013 µM; at Mcl-1 protein it was 8.9e-09 M. The compound also yielded a PARP fold in assay [2] of 333.9 fold.

Regarding `Cc1c(-c2c(-c3ccc(F)o3)sc3ncnc(OC(Cc4ccccc4OCc4ccnc(C(F)(F)F)c4)C(=O)O)c23)ccc(OCCN2CCN(C)CC2)c1Cl` [Example 167, (2R)-2-{[(5Sa)-5-{3-chloro-2-methyl-4-[2-(4-methylpiperazin-1-yl)ethoxy]phenyl}-6-(5-fluorofuran-2-yl)thieno[2,3-d]pyrimidin-4-yl]oxy}-3-(2-{[2-(trifluoromethyl)pyridin-4-yl]methoxy}phenyl)propanoic acid], the IC50 in assay [1] is 0.01 µM; at Mcl-1 protein, 4.6e-09 M. The compound further yielded a PARP fold in assay [2] of 230.1 fold.

As to `COc1cc(COc2ccccc2CC(Oc2ncnc3sc(-c4ccc(F)o4)c(-c4ccc(OCCN5CCN(C)CC5)c(Cl)c4C)c23)C(=O)O)ccn1` [Example 168, (2R)-2-{[(5Sa)-5-{3-chloro-2-methyl-4-[2-(4-methylpiperazin-1-yl)ethoxy]phenyl}-6-(5-fluorofuran-2-yl)thieno[2,3-d]pyrimidin-4-yl]oxy}-3-{2-[(2-methoxypyridin-4-yl)methoxy]phenyl}propanoic acid], the IC50 came to 0.025 µM in assay [1] and 2.8e-09 M on Mcl-1 protein. This compound also returned a PARP fold in assay [2] of 179.2 fold.

Consider `Cc1c(-c2c(-c3ccc(F)o3)sc3ncnc(OC(Cc4ccccc4OCc4ccnc(C5CC5)n4)C(=O)O)c23)ccc(OCCN2CCN(C)CC2)c1Cl` [Example 170, (2R)-2-{[(5Sa)-5-{3-chloro-2-methyl-4-[2-(4-methylpiperazin-1-yl)ethoxy]phenyl}-6-(5-fluorofuran-2-yl)thieno[2,3-d]pyrimidin-4-yl]oxy}-3-{2-[(2-cyclopropylpyrimidin-4-yl)methoxy]phenyl}propanoic acid], for which the IC50 in assay [1] stood at 0.006 µM; at Mcl-1 protein, 5.3e-09 M. Besides, in assay [2], the PARP fold was determined as 144 fold.

Regarding `Cc1c(-c2c(-c3ccc(F)o3)sc3ncnc(OC(Cc4ccccc4OCc4ccnc(-c5cccs5)n4)C(=O)O)c23)ccc(OCCN2CCN(C)CC2)c1Cl` [Example 171, (2R)-2-{[(5Sa)-5-{3-chloro-2-methyl-4-[2-(4-methylpiperazin-1-yl)ethoxy]phenyl}-6-(5-fluorofuran-2-yl)thieno[2,3-d]pyrimidin-4-yl]oxy}-3-(2-{[2-(thiophen-2-yl)pyrimidin-4-yl]methoxy}phenyl)propanoic acid], the IC50 is 0.003 µM in assay [1] and 4.1e-09 M on Mcl-1 protein. This compound also registered a PARP fold in assay [2] of 207.4 fold.

`CCOc1nccc(COc2ccccc2CC(Oc2ncnc3sc(-c4ccc(F)o4)c(-c4ccc(OCCN5CCN(C)CC5)c(Cl)c4C)c23)C(=O)O)n1` [Example 177, (2R)-2-{[(5Sa)-5-{3-chloro-2-methyl-4-[2-(4-methylpiperazin-1-yl)ethoxy]phenyl}-6-(5-fluorofuran-2-yl)thieno[2,3-d]pyrimidin-4-yl]oxy}-3-{2-[(2-ethoxypyrimidin-4-yl)methoxy]phenyl}propanoic acid]: the IC50 worked out at 0.005 µM in assay [1] and 2.8e-09 M on Mcl-1 protein. The PARP fold in assay [2] is reported as 233.8 fold.

Consider `Cc1cnccc1-c1nccc(COc2ccccc2CC(Oc2ncnc3sc(-c4ccc(F)o4)c(-c4ccc(OCCN5CCN(C)CC5)c(Cl)c4C)c23)C(=O)O)n1` [Example 198, (2R)-2-{[(5Sa)-5-{3-chloro-2-methyl-4-[2-(4-methylpiperazin-1-yl)ethoxy]phenyl}-6-(5-fluorofuran-2-yl)thieno[2,3-d]pyrimidin-4-yl]oxy}-3-(2-{[2-(3-methylpyridin-4-yl)pyrimidin-4-yl]methoxy}phenyl)propanoic acid], for which the IC50 is 0.002 µM in assay [1] and 7.7e-09 M on Mcl-1 protein. This compound also displayed a PARP fold in assay [2] of 280 fold.

On to `Cc1c(-c2c(-c3ccc(F)o3)sc3ncnc(OC(Cc4ccccc4OCc4ccnc(N5CCOCC5)n4)C(=O)O)c23)ccc(OCCN(C)C)c1Cl` [Example 202, (2R)-2-{[(5Sa)-5-{3-chloro-4-[2-(dimethylamino)ethoxy]-2-methylphenyl}-6-(5-fluorofuran-2-yl)thieno[2,3-d]pyrimidin-4-yl]oxy}-3-(2-{[2-(morpholin-4-yl)pyrimidin-4-yl]methoxy}phenyl)propanoic acid], for which the figures for the IC50 (in assay [1]; on Mcl-1 protein) were 0.009 µM and 3.5e-09 M, respectively. Moreover, the PARP fold in assay [2] is 153.8 fold.

In the case of `Cc1c(-c2c(-c3ccco3)sc3ncnc(OC(Cc4ccccc4OCc4ccnc(OCC5CC5)n4)C(=O)O)c23)ccc(OCCN2CCN(C)CC2)c1Cl` [Example 256, (2R)-2-{[(5Sa)-5-{3-chloro-2-methyl-4-[2-(4-methylpiperazin-1-yl)ethoxy]phenyl}-6-(furan-2-yl)thieno[2,3-d]pyrimidin-4-yl]oxy}-3-(2-{[2-(cyclopropylmethoxy)pyrimidin-4-yl]methoxy}phenyl)propanoic acid], the IC50 turned out to be 0.006 µM in assay [1] and 4.8e-09 M on Mcl-1 protein. In assay [2], this compound came in with a PARP fold of 125.1 fold.
